Experimental data published in patent US20240174636A1, “NOVEL INDOLEAMINE 2,3-DIOXYGENASE INHIBITORS, PROCESSES FOR THE PREPARATION THEREOF AND PHARMACEUTICAL COMPOSITIONS COMPRISING THE SAME” (YUHAN CORPORATION, priority 2021, published 2024).

The compounds below were run against IDO1 (Homo sapiens, UniProt P14902) (assay: IDO1 cellular activity using HEK293 cells transfected with IDO1 expression vector). Settings: 24 h compound incubation, read-out: Inhibitory Activity (IC50).
Format: cell-based
Set-up: host or cells: HEK293 cells, transient transfection with Lipofectamine 2000
Procedure: HEK293 cells were seeded at a density of 30000 cells/well in 100 μl of a culture medium (DMEM supplemented with 10% FBS, penicillin 100 U/ml, and streptomycin 100 μg/ml) in a tissue culture-treated 96 well plate. The cells were cultured in a 5% carbon dioxide incubator for 24 hours, transfected with the IDO1 expression vector (component A in IDO1 cell-based assay kit, catalog #72031, BPS Bioscience) using Lipofectamine 2000 (Life Technologies, #11668027), and then cultured for 24 hours in a 5% carbon dioxide incubator to express the IDO protein.
The activities were measured using a IDO1 cell-based assay kit (catalog #72031, BPS Bioscience). Specifically, an assay medium was prepared by diluting IDO1 assay medium substrate 1 and IDO1 assay medium supplement 2 in a culture medium at a ratio of 1:100, respectively. The test compounds were diluted to the predetermined concentrations in the fresh assay medium. After removing the culture medium using a multi-pipet, 200 μl of each assay medium containing the test material was added into respective well, followed by incubating in a 5% carbon dioxide incubator for 24 hours. The next day, 140 μl of culture medium from each well was transferred to a new 96-well plate. 10 μl of 6.1N trichloroacetic acid was added into each well, which was then cultured in a 50° C. incubator for 30 minutes. The plate was centrifuged at 2500 rpm for 10 minutes to settle any sediment. A detection reagent solution was prepared by diluting the detection reagent (component D in IDO1 cell-based assay kit, catalog #72031 BPS Bioscience) 50-fold in acetic acid. 100 μl of the supernatant taken from the centrifuged plate was transferred to a new transparent 96-well plate and then 100 μl of the detection reagent solution was added thereto. After reacting at room temperature for 10 minutes, absorbance was measured at 480 nm wavelength. For analysis of the results, the absorbance (At) of the well containing HEK293 cells in which IDO protein was expressed without treatment of an inhibitor was 100%; and the absorbance (Ab) of the well containing HEK293 cells in which IDO protein was not expressed was 0. The % absorbance was calculated according to the following equation: % Absorbance=(A−Ab)/(At−Ab), A=absorbance of the well treated with the test compound.

Sequence of IDO1 (P14902 whole entry): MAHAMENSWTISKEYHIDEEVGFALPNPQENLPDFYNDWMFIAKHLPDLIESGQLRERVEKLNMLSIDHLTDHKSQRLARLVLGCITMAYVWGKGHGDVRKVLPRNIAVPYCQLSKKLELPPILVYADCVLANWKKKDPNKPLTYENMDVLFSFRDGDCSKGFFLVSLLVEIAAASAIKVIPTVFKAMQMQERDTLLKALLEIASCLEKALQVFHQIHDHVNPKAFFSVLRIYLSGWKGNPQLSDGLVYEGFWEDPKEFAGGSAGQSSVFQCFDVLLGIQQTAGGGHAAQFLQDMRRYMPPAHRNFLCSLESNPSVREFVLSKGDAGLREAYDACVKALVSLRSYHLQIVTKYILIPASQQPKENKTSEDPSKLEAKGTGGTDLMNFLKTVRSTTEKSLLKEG

Compound	IC50 [nM]
COc1ccc2c(N[C@H](C)C[C@H]3CC[C@@H](c4ccnc5ccc(F)cc54)CC3)nc(Cl)nc2c1 [Example 67, 2-chloro-N-((R)-1-((cis)-4-(6-fluoroquinolin-4-yl)cyclohexyl)propan-2-yl)-7-methoxyquinazolin-4-amine]	47.5
C[C@H](C[C@H]1CC[C@@H](c2ccnc3ccc(F)cc32)CC1)Nc1nc2cccc(F)c2o1 [Example 37, 7-fluoro-N-((R)-1-((cis)-4-(6-fluoroquinolin-4-yl)cyclohexyl)propan-2-yl)benzo[d]oxazol-2-amine]	7.6
C[C@H](C[C@H]1CC[C@@H](c2ccnc3ccc(F)cc32)CC1)Nc1nc(Cl)nc2cc(C(F)(F)F)ccc12 [Example 66, 2-chloro-N-((R)-1-((cis)-4-(6-fluoroquinolin-4-yl)cyclohexyl)propan-2-yl)-7-(trifluoromethyl)quinazolin-4-amine]	30.8
C[C@H](C[C@H]1CC[C@H](c2ccnc3ccc(F)cc32)CC1)Nc1nc(Cl)nc2cc(C#N)ccc12 [Example 55, 2-chloro-4-(((R)-1-((trans)-4-(6-fluoroquinolin-4-yl)cyclohexyl)propan-2-yl)amino)quinazolin-7-carbonitrile]	28.2
C[C@H](C[C@H]1CC[C@@H](c2ccnc3ccc(F)cc32)CC1)Nc1nccc2cc(Cl)ccc12 [Example 34, 6-chloro-N-((R)-1-((cis)-4-(6-fluoroquinolin-4-yl)cyclohexyl)propan-2-yl)isoquinolin-1-amine]	68.6
C[C@H](C[C@H]1CC[C@@H](c2ccnc3ccc(F)cc32)CC1)Nc1nc2cc(F)ccc2o1 [Example 36, 5-fluoro-N-((R)-1-((cis)-4-(6-fluoroquinolin-4-yl)cyclohexyl)propan-2-yl)benzo[d]oxazol-2-amine]	5.7
C[C@H](C[C@H]1CC[C@@H](c2ccnc3ccc(F)cc32)CC1)Nc1nccc2cc(F)ccc12 [Example 33, 6-fluoro-N-((R)-1-((cis)-4-(6-fluoroquinolin-4-yl)cyclohexyl)propan-2-yl)isoquinolin-1-amine]	116
C[C@H](C[C@H]1CC[C@@H](c2ccnc3ccc(F)cc32)CC1)Nc1nncc2cc(Cl)ccc12 [Example 39, 6-chloro-N-((R)-1-((cis)-4-(6-fluoroquinolin-4-yl)cyclohexyl)propan-2-yl)phthalazin-1-amine]	9.7
C[C@H](C[C@H]1CC[C@@H](c2ccnc3ccc(F)cc32)CC1)Nc1nc(Cl)nc2cc(C#N)ccc12 [Example 63, 2-chloro-4-(((R)-1-((cis)-4-(6-fluoroquinolin-4-yl)cyclohexyl)propan-2-yl)amino)quinazolin-7-carbonitrile]	27.5
C[C@H](C[C@H]1CC[C@@H](c2ccnc3ccc(F)cc32)CC1)Nc1nc2ccc(OCCF)cc2o1 [Example 45, 6-(2-fluoroethoxy)-N-((R)-1-((cis)-4-(6-fluoroquinolin-4-yl)cyclohexyl)propan-2-yl)benzo[d]oxazol-2-amine]	5.5
C[C@H](C[C@H]1CC[C@@H](c2ccnc3ccc(F)cc32)CC1)Nc1nc2c(Cl)cccc2s1 [Example 35, 4-chloro-N-((R)-1-((cis)-4-(6-fluoroquinolin-4-yl)cyclohexyl)propan-2-yl)benzo[d]thiazol-2-amine]	105
COc1ccc2c(N[C@H](C)C[C@H]3CC[C@H](c4ccnc5ccc(F)cc54)CC3)nc(Cl)nc2c1 [Example 59, 2-chloro-N-((R)-1-((trans)-4-(6-fluoroquinolin-4-yl)cyclohexyl)propan-2-yl)-7-methoxyquinazolin-4-amine]	19.4
CCOc1ccc2nc(N[C@H](C)C[C@H]3CC[C@@H](c4ccnc5ccc(F)cc54)CC3)oc2c1 [Example 44, 6-ethoxy-N-((R)-1-((cis)-4-(6-fluoroquinolin-4-yl)cyclohexyl)propan-2-yl)benzo[d]oxazol-2-amine]	4.4

Now from value to compound:

IC50 [nM]	Compound
62.3	C[C@H](C[C@H]1CC[C@H](c2ccnc3ccc(F)cc32)CC1)Nc1nc(Cl)nc2c(F)cccc12 [Example 50, 2-chloro-8-fluoro-N-((R)-1-((trans)-4-(6-fluoroquinolin-4-yl)cyclohexyl)propan-2-yl)quinazolin-4-amine]
406	C[C@H](C[C@H]1CC[C@@H](c2ccnc3ccc(F)cc32)CC1)Nc1nc(Cl)nc2ccc(Cl)cc12 [Example 61, 2,6-dichloro-N-((R)-1-((cis)-4-(6-fluoroquinolin-4-yl)cyclohexyl)propan-2-yl)quinazolin-4-amine]
57.4	C[C@H](C[C@H]1CC[C@H](c2ccnc3ccc(F)cc32)CC1)Nc1nc(Cl)nc2c(OC(F)(F)F)cccc12 [Example 53, 2-chloro-N-((R)-1-((trans)-4-(6-fluoroquinolin-4-yl)cyclohexyl)propan-2-yl)-8-(trifluoromethoxy)quinazolin-4-amine]
38.8	C[C@H](C[C@H]1CC[C@@H](c2ccnc3ccc(F)cc32)CC1)Nc1nc(Cl)nc2cc(Br)ccc12 [Example 64, 7-bromo-2-chloro-N-((R)-1-((cis)-4-(6-fluoroquinolin-4-yl)cyclohexyl)propan-2-yl)quinazolin-4-amine]
7.6	C[C@H](C[C@H]1CC[C@H](c2ccnc3ccc(F)cc32)CC1)Nc1nc(Cl)nc2cc(Cl)ccc12 [Example 41, 2,7-dichloro-N-((R)-1-((trans)-4-(6-fluoroquinolin-4-yl)cyclohexyl)propan-2-yl)quinazolin-4-amine]
23.7	C[C@H](C[C@H]1CC[C@@H](c2ccnc3ccc(F)cc32)CC1)Nc1nc(Cl)nc2ccccc12 [Example 38, 2-chloro-N-((R)-1-((cis)-4-(6-fluoroquinolin-4-yl)cyclohexyl)propan-2-yl)quinazolin-4-amine]
19.3	C[C@H](C[C@H]1CC[C@H](c2ccnc3ccc(F)cc32)CC1)Nc1nc(Cl)nc2cc(Br)ccc12 [Example 56, 7-bromo-2-chloro-N-((R)-1-((trans)-4-(6-fluoroquinolin-4-yl)cyclohexyl)propan-2-yl)quinazolin-4-amine]
18.8	C[C@H](C[C@H]1CC[C@@H](c2ccnc3ccc(F)cc32)CC1)Nc1nc(Cl)nc2c(F)cccc12 [Example 69, 2-chloro-8-fluoro-N-((R)-1-((cis)-4-(6-fluoroquinolin-4-yl)cyclohexyl)propan-2-yl)quinazolin-4-amine]
45.4	C[C@H](C[C@H]1CC[C@H](c2ccnc3ccc(F)cc32)CC1)Nc1nc(Cl)nc2ccc(F)cc12 [Example 48, 2-chloro-6-fluoro-N-((R)-1-((trans)-4-(6-fluoroquinolin-4-yl)cyclohexyl)propan-2-yl)quinazolin-4-amine]
276	C[C@H](C[C@H]1CC[C@@H](c2ccnc3ccc(F)cc32)CC1)Nc1nc(Cl)nc2c(OC(F)(F)F)cccc12 [Example 71, 2-chloro-N-((R)-1-((cis)-4-(6-fluoroquinolin-4-yl)cyclohexyl)propan-2-yl)-8-(trifluoromethoxy)quinazolin-4-amine]
114	COc1cccc2c(N[C@H](C)C[C@H]3CC[C@@H](c4ccnc5ccc(F)cc54)CC3)nc(Cl)nc12 [Example 70, 2-chloro-N-((R)-1-((cis)-4-(6-fluoroquinolin-4-yl)cyclohexyl)propan-2-yl)-8-methoxyquinazolin-4-amine]
260	COc1cccc2c(N[C@H](C)C[C@H]3CC[C@H](c4ccnc5ccc(F)cc54)CC3)nc(Cl)nc12 [Example 52, 2-chloro-N-((R)-1-((trans)-4-(6-fluoroquinolin-4-yl)cyclohexyl)propan-2-yl)-8-methoxyquinazolin-4-amine]
124	C[C@H](C[C@H]1CC[C@H](c2ccnc3ccc(F)cc32)CC1)Nc1nc(Cl)nc2c(Cl)cccc12 [Example 51, 2,8-dichloro-N-((R)-1-((trans)-4-(6-fluoroquinolin-4-yl)cyclohexyl)propan-2-yl)quinazolin-4-amine]
61.1	C[C@H](C[C@H]1CC[C@@H](c2ccnc3ccc(F)cc32)CC1)Nc1nc(Cl)nc2ccc(F)cc12 [Example 60, 2-chloro-6-fluoro-N-((R)-1-((cis)-4-(6-fluoroquinolin-4-yl)cyclohexyl)propan-2-yl)quinazolin-4-amine]
43.6	C[C@H](C[C@H]1CC[C@H](c2ccnc3ccc(F)cc32)CC1)Nc1nc(Cl)nc2cc(F)ccc12 [Example 54, 2-chloro-7-fluoro-N-((R)-1-((trans)-4-(6-fluoroquinolin-4-yl)cyclohexyl)propan-2-yl)quinazolin-4-amine]
16.1	Cc1ccc2c(N[C@H](C)C[C@H]3CC[C@@H](c4ccnc5ccc(F)cc54)CC3)nc(Cl)nc2c1 [Example 65, 2-chloro-N-((R)-1-((cis)-4-(6-fluoroquinolin-4-yl)cyclohexyl)propan-2-yl)-7-methylquinazolin-4-amine]
